Assay results as given in US20250074890A1, “CYANOPYRIDINE AND CYANOPYRIMIDINE BCL6 DEGRADERS” (DANA-FARBER CANCER INSTITUTE, INC., priority 2021, published 2025).
Structures can show the parent of a compound that is named as a salt.

Molecular target: T1, BCL6 (Homo sapiens, UniProt P41182)
T1 construct: Endogenous BCL6 was tagged with the 11-amino acid SmBiT through CRISPR/Cas9 gene editing; endogenous in cells; host or cells: Su-DHL-4 (CRISPR/Cas9 knock-in, single cell clone)
Test: HiBiT cellular degradation assay in Su-DHL-4 cells
Type: cell-based
Settings: concentration to reach 50% degradation of endogenous SmBiT-tagged BCL6, 24 hours of compound treatment
Description: DC50 (concentration to reach 50% degradation) values were determined from a cellular degradation assay (HiBiT, Promega™) in Su-DHL-4 cells (Table 1). Endogenous BCL6 was tagged with the 11-amino acid SmBiT through CRISPR/Cas9 gene editing and single cell clone selection. After 24 hours of compound treatment, cells were lysed and incubated with LgBiT protein to reconstitute intact nanoluciferase. Substrate was then added and relative luciferase units were measured. Degradation levels for each treatment were taken as a percentage compared to the control, 100% DMSO (Prism).

Compound	DC50 [nM]
CNC(=O)COc1cc2cc(Nc3nc(N4C[C@@H](C)C(F)(F)[C@@H](C)C4)c(C#N)cc3Cl)ccc2n(CCCO)c1=O [Compound 18, 2-((6-((3-Chloro-5-cyano-6-((3R,5S)-4,4-difluoro-3,5-dimethylpiperidin-1-yl)pyridin-2-yl)amino)-1-(3-hydroxypropyl)-2-oxo-1,2-dihydroquinolin-3-yl)oxy)-N-methylacetamide]	5
C[C@@H]1CN(c2nc(Nc3ccc4c(c3)n(CCC(C)(C)O)c(=O)n4C)c(F)cc2C#N)C[C@H](O)C1(F)F [Compound 82, 2-((3S,5R)-4,4-difluoro-3-hydroxy-5-methylpiperidin-1-yl)-5-fluoro-6-((3-(3-hydroxy-3-methylbutyl)-1-methyl-2-oxo-2,3-dihydro-1H-benzo[d]imidazol-5-yl)amino)nicotinonitrile]	33
C[C@@H]1CN(c2nc(Nc3ccc4c(c3)n(CCC(C)(C)O)c(=O)n4C)c(Cl)cc2C#N)C[C@H](N)C1(F)F [Compound 48, 2-((3S,5R)-3-Amino-4,4-difluoro-5-methylpiperidin-1-yl)-5-chloro-6-((3-(3-hydroxy-3-methylbutyl)-1-methyl-2-oxo-2,3-dihydro-1H-benzo[d]imidazol-5-yl)amino)nicotinonitrile]	31
C[C@H]1CN(c2nc(Nc3ccc4c(c3)n(C[C@H]3COC(=O)N3)c(=O)n4C)c(F)cc2C#N)C[C@@H](N)C1(F)F [Compound 61, 2-((3R,5S)-3-amino-4,4-difluoro-5-methylpiperidin-1-yl)-5-fluoro-6-((1-methyl-2-oxo-3-(((S)-2-oxooxazolidin-4-yl)methyl)-2,3-dihydro-1H-benzo[d]imidazol-5-yl)amino)nicotinonitrile]	> 400
C[C@@H]1CN(c2nc(Nc3ccc4c(c3)n(CCC(C)(C)O)c(=O)n4C)c(Cl)cc2C#N)C[C@H](O)C1(F)F [Compound 74, 5-chloro-2-((3S,5R)-4,4-difluoro-3-hydroxy-5-methylpiperidin-1-yl)-6-((3-(3-hydroxy-3-methylbutyl)-1-methyl-2-oxo-2,3-dihydro-1H-benzo[d]imidazol-5-yl)amino)nicotinonitrile]	22
CNC(=O)COc1cc2cc(Nc3nc(N4C[C@@H](C)[C@@H](F)[C@@H](C)C4)c(C#N)cc3Cl)ccc2n(CCCN)c1=O [Compound 69, 2-((1-(3-Aminopropyl)-6-((3-chloro-5-cyano-6-((3S,4S,5R)-4-fluoro-3,5-dimethylpiperidin-1-yl)pyridin-2-yl)amino)-2-oxo-1,2-dihydroquinolin-3-yl)oxy)-N-methylacetamide]	15
C[C@@H]1CN(c2nc(Nc3ccc4c(c3)n(C[C@H]3CNC(=O)O3)c(=O)n4C)c(F)cc2C#N)C[C@H](N)C1(F)F [Compound 84, 2-((3S,5R)-3-amino-4,4-difluoro-5-methylpiperidin-1-yl)-5-fluoro-6-((1-methyl-2-oxo-3-(((R)-2-oxooxazolidin-5-yl)methyl)-2,3-dihydro-1H-benzo[d]imidazol-5-yl)amino)nicotinonitrile]	> 400
C[C@H]1CN(c2nc(Nc3ccc4c(c3)n(C[C@@H]3COC(=O)N3)c(=O)n4C)c(F)cc2C#N)C[C@@H](N)C1(F)F [Compound 60, 2-[(3R,5S)-3-Amino-4,4-difluoro-5-methyl-1-piperidyl]-5-fluoro-6-[[1-methyl-2-oxo-3-[[(R)-2-oxooxazolidin-4-yl]methyl]benzimidazol-5-yl]amino]pyridine-3-carbonitrile]	> 400
C[C@H]1CN(c2nc(Nc3ccc4c(c3)n(CCC(C)(C)O)c(=O)n4C)c(Cl)cc2C#N)C[C@@H](N)C1(F)F (single isomer, unassigned) [Compound 49]	> 400
C[C@H]1CN(c2nc(Nc3ccc4c(c3)n(C[C@@H]3CNC(=O)O3)c(=O)n4C)c(F)cc2C#N)C[C@@H](N)C1(F)F [Compound 85, 2-[(3R,5S)-3-amino-4,4-difluoro-5-methyl-1-piperidyl]-5-fluoro-6-[[1-methyl-2-oxo-3-[[(5S)-2-oxooxazolidin-5-yl]methyl]benzimidazol-5-yl]amino]pyridine-3-carbonitrile]	> 400
C[C@@H]1CN(c2nc(Nc3ccc4c(c3)n(CCC(C)(C)O)c(=O)n4C)c(F)cc2C#N)C[C@H](O)[C@@H]1F [Compound 52, 5-Fluoro-2-((3S,4R,5R)-4-fluoro-3-hydroxy-5-methylpiperidin-1-yl)-6-((3-(3-hydroxy-3-methylbutyl)-1-methyl-2-oxo-2,3-dihydro-1H-benzo[d]imidazol-5-yl)amino)nicotinonitrile]	17
CNC(=O)COc1cc2cc(Nc3nc(N4C[C@@H](C)C[C@@H](N)C4)c(C#N)cc3Cl)ccc2n(C)c1=O [Compound 39, 2-((6-((6-((3R,5S)-3-Amino-5-methylpiperidin-1-yl)-3-chloro-5-cyanopyridin-2-yl)amino)-1-methyl-2-oxo-1,2-dihydroquinolin-3-yl)oxy)-N-methylacetamide]	41
CNC(=O)COc1cc2cc(Nc3nc(N4C[C@@H](N)C(F)(F)[C@@H](C)C4)c(C#N)cc3Cl)ccc2n(CC2COC2)c1=O (single isomer, unassigned) [Compound 42]	71
CNC(=O)COc1cc2cc(Nc3nc(N4CC(C)CC(O)C4)c(C#N)cc3Cl)ccc2n(CCN(C)C)c1=O (stereo not shown) [Compound 76, 2-((6-((3-Chloro-5-cyano-6-(3-hydroxy-5-methylpiperidin-1-yl)pyridin-2-yl)amino)-1-(2-(dimethylamino)ethyl)-2-oxo-1,2-dihydroquinolin-3-yl)oxy)-N-methylacetamide]	4
C[C@H]1C[C@@H](N)CN(c2nc(Nc3ccc4c(c3)n(CCC(C)(C)O)c(=O)n4C)c(Cl)cc2C#N)C1 [Compound 35, 2-((3R,5S)-3-Amino-5-methylpiperidin-1-yl)-5-chloro-6-((3-(3-hydroxy-3-methylbutyl)-1-methyl-2-oxo-2,3-dihydro-1H-benzo[d]imidazol-5-yl)amino)nicotinonitrile]	> 400
C[C@@H]1CN(c2nc(Nc3ccc4c(c3)n(C[C@H]3COC(=O)N3)c(=O)n4C)c(F)cc2C#N)C[C@H](C)[C@@H]1F [Compound 89, 5-Fluoro-2-((3S,4S,5R)-4-fluoro-3,5-dimethylpiperidin-1-yl)-6-((1-methyl-2-oxo-3-(((S)-2-oxooxazolidin-4-yl)methyl)-2,3-dihydro-1H-benzo[d]imidazol-5-yl)amino)nicotinonitrile]	102
CNC(=O)COc1cc2cc(Nc3nc(N4C[C@@H](C)C(F)(F)[C@@H](C)C4)c(C#N)cc3Cl)ccc2n(C)c1=O [Compound 2, 2-((6-((3-Chloro-5-cyano-6-((3S,5R)-4,4-difluoro-3,5-dimethylpiperidin-1-yl)pyridin-2-yl)amino)-1-methyl-2-oxo-1,2-dihydroquinolin-3-yl)oxy)-N-methylacetamide]	6
C[C@@H]1CN(c2nc(Nc3ccc4c(c3)n(CCC(C)(C)O)c(=O)n4C)c(Cl)cc2C#N)C[C@H](O)[C@@H]1F [Compound 50, 5-chloro-2-((3S,4R,5R)-4-fluoro-3-hydroxy-5-methylpiperidin-1-yl)-6-((3-(3-hydroxy-3-methylbutyl)-1-methyl-2-oxo-2,3-dihydro-1H-benzo[d]imidazol-5-yl)amino)nicotinonitrile]	28
CNC(=O)COc1cc2cc(Nc3nc(N4C[C@@H](C)[C@H](O)[C@@H](C)C4)c(C#N)cc3Cl)ccc2n(C)c1=O [Compound 47, 2-((6-((3-Chloro-5-cyano-6-((3R,4r,5S)-4-hydroxy-3,5-dimethylpiperidin-1-yl)pyridin-2-yl)amino)-1-methyl-2-oxo-1,2-dihydroquinolin-3-yl)oxy)-N-methylacetamide]	11
C[C@H]1CN(c2nc(Nc3ccc4c(c3)n(CCC(C)(C)O)c(=O)n4C)c(F)cc2C#N)C[C@@H](O)C1(F)F (single isomer, unassigned) [Compound 83]	> 400
C[C@H]1CN(c2nc(Nc3ccc4c(c3)n(CCC(C)(C)O)c(=O)n4C)c(F)cc2C#N)C[C@@H](N)C1(F)F [Compound 81, 2-((3R,5S)-3-Amino-4,4-difluoro-5-methylpiperidin-1-yl)-5-fluoro-6-((3-(3-hydroxy-3-methylbutyl)-1-methyl-2-oxo-2,3-dihydro-1H-benzo[d]imidazol-5-yl)amino)nicotinonitrile hydrochloride]	31
CNC(=O)COc1cc2cc(Nc3nc(N4C[C@@H](CCO)C(F)(F)[C@@H](C)C4)c(C#N)cc3Cl)ccc2n(C)c1=O [Compound 62, 2-((6-((3-chloro-5-cyano-6-((3R,5S)-4,4-difluoro-3-(2-hydroxyethyl)-5-methylpiperidin-1-yl)pyridin-2-yl)amino)-1-methyl-2-oxo-1,2-dihydroquinolin-3-yl)oxy)-N-methylacetamide]	8
CNC(=O)COc1cc2cc(Nc3nc(N4C[C@H](C)C[C@H](C(=O)O)C4)c(C#N)cc3Cl)ccc2n(C)c1=O [Compound 79, (3S,5R)-1-(5-chloro-3-cyano-6-((1-methyl-3-(2-(methylamino)-2-oxoethoxy)-2-oxo-1,2-dihydroquinolin-6-yl)amino)pyridin-2-yl)-5-methylpiperidine-3-carboxylic acid]	12
CNC(=O)COc1cc2cc(Nc3nc(N4C[C@@H](C)C(F)(F)[C@@H](C)C4)c(C#N)cc3Cl)ccc2n(CC2CCO2)c1=O (stereo partly drawn) [Compound 6, 2-((6-((3-Chloro-5-cyano-6-((3R,5S)-4,4-difluoro-3,5-dimethylpiperidin-1-yl)pyridin-2-yl)amino)-1-(oxetan-2-ylmethyl)-2-oxo-1,2-dihydroquinolin-3-yl)oxy)-N-methylacetamide]	13
C[C@H]1C[C@@H](N)CN(c2nc(Nc3ccc4c(c3)c3c(c(=O)n4C)OCC(F)(F)[C@H](C4CC4)N3)c(Cl)cc2C#N)C1 (single isomer, unassigned) [Compound 24]	30
